Reference: patent US10179914B2, “CDC25A inhibitor for the treatment of drug resistant cancer or for the prevention of tumor relapse” (INSERM (INSTITUT NATIONAL DE LA SANTÉ ET DE LA RECHERCHE …, priority 2014, dated 2019)

How the values were obtained:
[1] = system: HL-60 cells (FLT3 wild type); assay: Cell proliferation, trypan blue counting, HL-60; type: cell-based, human
Procedure: (§1) (a) MV4-11 and MOLM-14 FLT3-ITD positive cells, KG1, HL-60 and TF-1 FLT3 wild type cells, and K562 FLT3 negative cells were cultured in the presence of the CDC25 inhibitor IRC-083864 (200 nM). Cells were harvested each day and counted after trypan blue coloration. The graph represents three independent experiments.
(§2) Cell lines and reagents. Human acute myeloid leukemia cell lines MOLM-14 (Matsuo Y et al, Leukemia 1997) (kindly provided by Martin Carroll, University of Pennsylvania, Philadelphia, Pa., USA) MV4-11, K562 (ACC-102 and ACC-10, DSMZ, Braunschweig, Germany) and FLT3-ITD-expressing murine BaF3 cells were cultured in RPMI 1640 medium (Gibco, Life Technologies, Carlsbad, Calif., USA) supplemented with 10% fetal bovine serum (Sigma, Saint Louis, Calif., USA). TF-1 (ATCC-CRL2003) cells were cultured in RPMI 1640 medium with 10% fetal bovine serum and GM-CSF 2 ng/ml. Concerning MOLM-14 cell line, the presence of a monoallelic 21 bp FLT3-ITD mutation and of an MLL-containing ins(11; 9)(q23;p22p23) were verified (Hematology laboratory of Toulouse University Hospital, Prof E. Delabesse and Dr I. Luquet). KG1 and HL-60 (ACC-14 and ACC-3, DSMZ) cell lines were grown in Iscove's Modified Dulbecco's Medium (IMDM, Gibco) plus 20% FBS. All cells were grown in the presence of 100 units/ml of penicillin and streptomycin (Invitrogen) at 37° C. and 5% CO2.

[2] = with these regimens; cited from earlier work
[3] = system: TF-1 cells (FLT3 wild type); assay: Cell proliferation, trypan blue counting, TF-1; type: cell-based, human; settings: 200 nM
Procedure: as §1, §2

MOLM-14 and MV4-11 cells = assay: Differentiation of FLT3-ITD AML cell lines (surface markers, morphology); type: cell-based, human
Procedure: (a-b) MOLM-14 and MV4-11 cells were treated for different times with IRC-083864 (100 nM and 200 nM) and the expression of the cell surface markers CD11b, CD14 and CD15 were followed by flow cytometry analysis. (c) MOLM-14 and MV4-11 cells were treated for different times with IRC-083864 (100 nM) and morphological changes were estimated by microscopy after cells were cytospun and stained at days 8 and 13. Original magnification ×100. (d) MOLM-14 cells were treated for different times with IRC-083864 (100 nM) and c-myc expression as well as C/EBPα phosphorylation on serine 21 were analyzed by western blot at day 1, and C/EBPε expression after 6 days of treatment. (e) MOLM-14 cells were transfected with CDC25A shRNA The expression of the cell surface markers CD11b, CD14 and CD15 were followed by flow cytometry analysis at day 3 and 6 (upper panel), and their morphology was analyzed by microscopy after 6 days (lower panel). Original magnification ×100. (f) MOLM-14 cells were transfected with CDC25A siRNA, and their morphology was analyzed by microscopy after 3 days (upper panel). Original magnification ×100. The efficiency of CDC25A siRNA was assessed by western blot analysis (lower panel).
Lentiviral infections. To generate lentiviral vectors expressing CDC25A protein, sequences were cloned into the pTrip-TAL-Ires-GFP lentiviral vector. We used 293-T packaging cells, co-transfected with lentiviral protein (GAG, POL, and ENV) encoding plasmids, and plasmids containing a control or CDC25A genes, separately. Supernatants containing lentivirus were collected 48 h after transfection, during 3 consecutive days. MOLM-14 cells were plated at 5×10^5 cells in 200 μl in serum-free medium and 5 μl of lentiviral supernatant was added during 3 h. Cells were then grown in 10% FBS RPMI medium.
Flow cytometry. Apoptotic cells were detected with Annexin V-FITC detection kit from BD Pharmingen (San Diego, Calif., USA) according to the manufacturer instructions. To evaluate AML cell differentiation, cells were stained for 30 min with the following anti-human monoclonal antibodies: CD11b-PE (Beckman Coulter), CD14-FITC (BD Biosciences), CD15-APC (BD Biosciences). For patient samples, additional hCD45-APC-H7 (BD Biosciences), Annexin V-Pacific Blue (BioLegend, San Diego, Calif., USA) and 7-AAD (Sigma) were used; and for bone marrow mice cells, additional CD33-FITC, CD44-PE Cy7, mCD45-PerCP Cy 5.5, CD14-Alexa 700 were used. Data were collected on a LSRII or a LSRFortessa cytometer (BD Biosciences), and analyzed with FlowJo software. A minimum of 10,000 events was collected.
Morphological examination. […] were spun at 500 rpm for 5 minutes onto glass slides and May-Grünwald-Giemsa stained at the Toulouse University Hospital hematology laboratory.

## Cc1nc2c(s1)C(=O)C=C(NCCCN(C)CCCNC1=CC(=O)c3nc(-c4cc(F)ccc4F)oc3C1=O)C2=O [IRC-083864]
[1]; 200 nM
  proliferation of HL-60: did not decrease
[1]; FLT3 ligand stimulation
  proliferation of HL60 upon stimulation by FLT3 ligand: had no effect
[2]
  apparent toxicity: No sign of apparent toxicity
[3]
  proliferation of TF-1: did not decrease
MOLM-14 and MV4-11 cells; 100 nM and 200 nM, as early as two days
  expression of CD11b: induced in a dose dependent manner
MOLM-14 and MV4-11 cells; 100 nM, 8 and 13 days
  morphological analysis: monocytic-like nuclear changes
MOLM-14 and MV4-11 cells; after 8 days
  expression of CD15: either decreased or did not change significantly
MOLM-14 and MV4-11 cells; after 8 days, both cell lines
  expression of monocytic marker CD14: increased
